Data reported in ChEMBL document CHEMBL1145312, “Structure-activity relationships of triazolopyridine oxazole p38 inhibitors: identification of candidates for clinical development” (Bioorg Med Chem Lett, 2006).
Values after ≈ are worked out from the molar mass of the structure shown.

How the values were obtained:
[1] = Hepatocyte microsomal extraction ratio in human; settings: hepatic microsomes
[2] = molecular target: RAC-alpha serine/threonine-protein kinase (Homo sapiens, UniProt P31749); experiment: Inhibition of PKBalpha
Chain of RAC-alpha serine/threonine-protein kinase (P31749 whole entry): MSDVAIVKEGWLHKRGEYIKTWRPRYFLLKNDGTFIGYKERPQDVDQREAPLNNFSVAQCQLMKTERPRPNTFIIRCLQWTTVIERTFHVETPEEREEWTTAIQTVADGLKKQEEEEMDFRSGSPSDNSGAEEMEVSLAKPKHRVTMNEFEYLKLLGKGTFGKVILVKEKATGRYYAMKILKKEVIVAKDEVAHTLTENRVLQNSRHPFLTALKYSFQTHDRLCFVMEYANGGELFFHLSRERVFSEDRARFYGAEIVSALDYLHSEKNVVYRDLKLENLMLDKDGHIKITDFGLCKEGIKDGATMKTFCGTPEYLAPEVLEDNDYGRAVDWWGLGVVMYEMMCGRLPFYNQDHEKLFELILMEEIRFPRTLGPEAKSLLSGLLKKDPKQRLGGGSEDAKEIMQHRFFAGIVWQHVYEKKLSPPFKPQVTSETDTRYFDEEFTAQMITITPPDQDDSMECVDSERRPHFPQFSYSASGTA

[3] = molecular target: T1, Serine/threonine-protein kinase Sgk1 (Homo sapiens, UniProt O00141); experiment: Inhibition of SGK
T1 sequence (O00141 whole entry): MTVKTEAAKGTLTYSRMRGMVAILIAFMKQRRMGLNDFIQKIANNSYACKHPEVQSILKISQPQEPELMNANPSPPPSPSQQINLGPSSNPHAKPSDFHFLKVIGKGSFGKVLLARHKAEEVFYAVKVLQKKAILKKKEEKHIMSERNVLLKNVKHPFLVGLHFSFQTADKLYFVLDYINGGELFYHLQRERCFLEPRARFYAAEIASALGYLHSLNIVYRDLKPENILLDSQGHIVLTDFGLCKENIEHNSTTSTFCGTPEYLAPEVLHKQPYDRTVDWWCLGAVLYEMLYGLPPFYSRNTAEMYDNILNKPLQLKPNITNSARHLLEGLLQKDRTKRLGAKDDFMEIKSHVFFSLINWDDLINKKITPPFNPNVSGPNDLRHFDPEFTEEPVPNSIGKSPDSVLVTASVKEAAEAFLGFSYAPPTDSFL

[4] = molecular target: Rho-associated protein kinase 2 (Homo sapiens, UniProt O75116); experiment: Inhibition of ROCK2
Chain of Rho-associated protein kinase 2 (O75116 whole entry): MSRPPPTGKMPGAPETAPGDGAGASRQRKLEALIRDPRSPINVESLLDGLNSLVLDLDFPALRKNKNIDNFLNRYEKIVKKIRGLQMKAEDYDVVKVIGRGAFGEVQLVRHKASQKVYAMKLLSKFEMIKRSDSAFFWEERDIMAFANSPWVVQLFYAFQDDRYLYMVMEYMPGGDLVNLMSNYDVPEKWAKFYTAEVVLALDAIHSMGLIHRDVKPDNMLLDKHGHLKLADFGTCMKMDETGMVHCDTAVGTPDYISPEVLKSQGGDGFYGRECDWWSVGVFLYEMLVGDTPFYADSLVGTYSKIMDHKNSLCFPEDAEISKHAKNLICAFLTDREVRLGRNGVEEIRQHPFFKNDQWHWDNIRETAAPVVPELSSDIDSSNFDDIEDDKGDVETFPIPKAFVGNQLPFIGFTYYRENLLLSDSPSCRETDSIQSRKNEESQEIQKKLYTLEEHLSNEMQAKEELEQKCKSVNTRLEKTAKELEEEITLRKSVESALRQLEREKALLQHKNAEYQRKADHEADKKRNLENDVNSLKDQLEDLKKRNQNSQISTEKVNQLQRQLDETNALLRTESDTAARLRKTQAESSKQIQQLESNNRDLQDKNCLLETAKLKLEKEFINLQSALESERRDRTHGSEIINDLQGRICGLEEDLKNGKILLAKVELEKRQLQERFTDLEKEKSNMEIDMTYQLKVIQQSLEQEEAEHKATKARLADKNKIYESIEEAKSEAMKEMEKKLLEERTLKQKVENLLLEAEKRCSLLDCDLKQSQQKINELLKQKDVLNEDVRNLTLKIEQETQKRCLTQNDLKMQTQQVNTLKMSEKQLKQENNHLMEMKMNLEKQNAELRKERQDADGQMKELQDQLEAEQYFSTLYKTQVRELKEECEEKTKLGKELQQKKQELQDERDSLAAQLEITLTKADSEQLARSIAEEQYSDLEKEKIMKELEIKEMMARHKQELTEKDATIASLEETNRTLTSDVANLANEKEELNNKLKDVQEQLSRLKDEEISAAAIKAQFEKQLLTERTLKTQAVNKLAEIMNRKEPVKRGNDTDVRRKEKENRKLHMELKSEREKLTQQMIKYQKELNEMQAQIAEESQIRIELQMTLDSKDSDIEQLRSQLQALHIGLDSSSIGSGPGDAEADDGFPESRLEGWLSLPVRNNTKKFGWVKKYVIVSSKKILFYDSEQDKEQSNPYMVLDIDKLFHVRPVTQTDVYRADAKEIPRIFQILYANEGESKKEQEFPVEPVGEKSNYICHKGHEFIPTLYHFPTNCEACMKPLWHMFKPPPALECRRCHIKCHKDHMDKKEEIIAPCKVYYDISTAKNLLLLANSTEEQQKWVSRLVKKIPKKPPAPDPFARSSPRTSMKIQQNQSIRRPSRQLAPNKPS

[5] = molecular target: Cyclin-dependent kinase 2 (Homo sapiens, UniProt P24941); experiment: Inhibition of CDK2
[6] = Inhibition of PI3K
[7] = molecular target: T2, 3-phosphoinositide-dependent protein kinase 1 (Homo sapiens, UniProt O15530); experiment: Inhibition of PDK1
T2 sequence (O15530 whole entry): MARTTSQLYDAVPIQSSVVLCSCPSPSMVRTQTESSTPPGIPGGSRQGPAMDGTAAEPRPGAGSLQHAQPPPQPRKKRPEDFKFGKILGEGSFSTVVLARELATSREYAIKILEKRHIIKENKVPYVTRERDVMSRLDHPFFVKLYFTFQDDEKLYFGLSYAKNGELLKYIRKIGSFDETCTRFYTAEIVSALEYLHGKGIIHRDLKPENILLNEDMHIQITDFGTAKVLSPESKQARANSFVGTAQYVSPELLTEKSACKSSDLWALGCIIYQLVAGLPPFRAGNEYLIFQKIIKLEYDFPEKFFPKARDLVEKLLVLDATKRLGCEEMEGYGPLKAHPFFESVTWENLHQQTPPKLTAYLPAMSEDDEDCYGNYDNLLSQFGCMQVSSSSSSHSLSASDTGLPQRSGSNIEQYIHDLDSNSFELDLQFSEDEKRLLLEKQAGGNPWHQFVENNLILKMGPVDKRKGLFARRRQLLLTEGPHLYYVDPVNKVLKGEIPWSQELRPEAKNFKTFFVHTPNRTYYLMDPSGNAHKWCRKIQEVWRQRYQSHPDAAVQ

[8] = Half life in rat; assay type: ADME, organism-based; settings: in vivo
Rattus norvegicus = species on record: Rattus norvegicus; experiment: Inhibition of LPS-induced TNFalpha release in rat; assay type: functional
[9] = Bioavailability in monkey; assay type: ADME, organism-based, Macaca mulatta; settings: rhesus monkey, in vivo
[10] = Half life in monkey; assay type: ADME, organism-based, Macaca mulatta; settings: rhesus monkey, in vivo
[11] = Plasma clearance in rat; assay type: ADME, organism-based
[12] = Plasma clearance in monkey; assay type: ADME, organism-based, Macaca mulatta; settings: rhesus monkey
[13] = Bioavailability in rat; assay type: ADME, organism-based; settings: in vivo
[14] = Solubility in PBS buffer at ph 6.5; assay type: physicochemical
hERG (KCNH2) = hERG (KCNH2) (Homo sapiens, UniProt Q12809); experiment: Inhibition of hERG channel current in HEK293 cells at 3 uM; assay type: toxicity, cell-based; settings: HEK293 cells that express hERG
Chain of hERG (KCNH2) (Q12809 whole entry): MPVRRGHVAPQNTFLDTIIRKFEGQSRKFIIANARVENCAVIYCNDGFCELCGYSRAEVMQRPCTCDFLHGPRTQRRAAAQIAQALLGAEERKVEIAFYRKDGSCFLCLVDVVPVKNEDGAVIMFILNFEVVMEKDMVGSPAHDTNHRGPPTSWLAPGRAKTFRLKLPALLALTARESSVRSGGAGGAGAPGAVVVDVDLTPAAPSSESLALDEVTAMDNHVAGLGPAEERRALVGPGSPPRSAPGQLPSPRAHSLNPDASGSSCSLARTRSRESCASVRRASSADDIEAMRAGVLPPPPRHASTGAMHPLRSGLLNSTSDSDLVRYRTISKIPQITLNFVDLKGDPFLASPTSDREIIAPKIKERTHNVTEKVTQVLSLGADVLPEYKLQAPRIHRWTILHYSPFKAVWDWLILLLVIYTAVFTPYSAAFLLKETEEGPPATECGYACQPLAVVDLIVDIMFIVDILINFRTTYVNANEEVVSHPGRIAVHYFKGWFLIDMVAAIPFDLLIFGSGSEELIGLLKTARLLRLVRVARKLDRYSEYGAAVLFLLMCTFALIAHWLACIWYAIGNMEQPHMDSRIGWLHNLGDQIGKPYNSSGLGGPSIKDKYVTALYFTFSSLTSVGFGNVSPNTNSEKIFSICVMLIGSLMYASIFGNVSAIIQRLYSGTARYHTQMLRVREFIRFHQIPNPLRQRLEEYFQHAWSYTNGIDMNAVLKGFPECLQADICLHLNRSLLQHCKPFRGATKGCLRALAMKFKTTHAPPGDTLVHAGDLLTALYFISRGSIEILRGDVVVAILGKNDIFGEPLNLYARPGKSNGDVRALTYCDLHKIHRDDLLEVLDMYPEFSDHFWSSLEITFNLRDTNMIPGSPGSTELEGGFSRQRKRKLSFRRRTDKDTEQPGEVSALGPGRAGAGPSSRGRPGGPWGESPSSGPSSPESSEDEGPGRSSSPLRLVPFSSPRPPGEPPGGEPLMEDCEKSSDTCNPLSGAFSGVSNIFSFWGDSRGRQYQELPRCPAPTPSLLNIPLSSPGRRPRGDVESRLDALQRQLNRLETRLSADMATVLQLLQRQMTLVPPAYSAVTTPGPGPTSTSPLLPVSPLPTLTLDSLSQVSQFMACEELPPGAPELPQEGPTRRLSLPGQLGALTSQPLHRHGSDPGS

[15] = Volume of distribution in rat; assay type: ADME, organism-based; settings: in vivo, read-out: Vdss
[16] = Volume of distribution in monkey; assay type: ADME, organism-based, Macaca mulatta; settings: rhesus monkey, in vivo; read-out: Vdss
[17] = Permeability from apical to basolateral side of Caco-2 cell membrane; assay type: ADME, cell-based; settings: human
[18] = Permeability from basolateral to apical side of Caco-2 cell membrane; assay type: ADME, cell-based; settings: human
Casein kinase II = Casein kinase II (Homo sapiens, UniProt P19784+P67870+P68400); experiment: Inhibition of CK2; assay type: protein-complex assay
Chain of Casein kinase II (P67870 whole entry): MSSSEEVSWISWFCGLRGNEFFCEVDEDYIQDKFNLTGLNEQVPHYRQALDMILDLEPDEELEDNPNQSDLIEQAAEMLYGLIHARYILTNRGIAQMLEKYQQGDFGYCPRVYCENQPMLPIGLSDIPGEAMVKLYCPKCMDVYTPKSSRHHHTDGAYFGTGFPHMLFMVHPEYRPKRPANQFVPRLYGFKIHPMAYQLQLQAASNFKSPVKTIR
Chain of Casein kinase II (P68400 whole entry): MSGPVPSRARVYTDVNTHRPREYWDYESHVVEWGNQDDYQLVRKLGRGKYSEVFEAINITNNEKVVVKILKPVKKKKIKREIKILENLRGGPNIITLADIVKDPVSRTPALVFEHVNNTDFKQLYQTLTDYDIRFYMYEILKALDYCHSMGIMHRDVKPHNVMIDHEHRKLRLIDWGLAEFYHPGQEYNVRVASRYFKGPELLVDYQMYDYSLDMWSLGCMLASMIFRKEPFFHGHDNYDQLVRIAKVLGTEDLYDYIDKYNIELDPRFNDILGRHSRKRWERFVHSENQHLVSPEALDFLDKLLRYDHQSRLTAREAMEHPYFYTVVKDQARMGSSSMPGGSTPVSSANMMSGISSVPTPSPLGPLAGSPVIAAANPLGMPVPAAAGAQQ
Chain of Casein kinase II (P19784 whole entry): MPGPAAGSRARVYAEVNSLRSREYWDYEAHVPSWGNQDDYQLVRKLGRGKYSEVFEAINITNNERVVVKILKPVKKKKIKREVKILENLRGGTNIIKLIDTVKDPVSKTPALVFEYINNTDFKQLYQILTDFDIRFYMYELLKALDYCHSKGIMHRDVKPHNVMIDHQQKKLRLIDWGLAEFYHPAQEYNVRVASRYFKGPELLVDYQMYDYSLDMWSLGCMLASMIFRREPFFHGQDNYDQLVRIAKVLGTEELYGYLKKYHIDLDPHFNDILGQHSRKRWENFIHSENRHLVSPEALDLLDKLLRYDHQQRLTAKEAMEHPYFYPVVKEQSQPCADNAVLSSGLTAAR

| IC50 [2] | IC50 [3] | IC50 [4] | IC50 [5] | IC50 [6] | IC50 [7] | Compound | further results |
| --- | --- | --- | --- | --- | --- | --- | --- |
| > 10 µM | > 10 µM | > 10 µM | > 10 µM | > 10 µM | > 10 µM | CC(C)(C)c1nnc2ccc(-c3ocnc3-c3ccc(F)cc3F)cn12 | hepatic extraction ratio [1]: < 0.3 |
| > 10 µM | > 10 µM | > 10 µM | > 10 µM | > 10 µM | > 10 µM | CC(C)(C)c1nnc2ccc(-c3ocnc3-c3cc(F)c(F)cc3F)cn12 | half-life [8]: 156 min; ED50 (Rattus norvegicus): 0.1 mg/kg; bioavailability [9]: 66%; half-life [10]: 312 min; clearance [11]: 3 mL/min/kg; clearance [12]: 3.4 mL/min/kg; bioavailability [13]: 54%; solubility [14]: 41 µg/mL (≈ 110 µM); inhibition at 3 µM (hERG (KCNH2)): 5.9%; Vd [15]: 0.6 L/kg; Vd [16]: 1.2 L/kg |
| > 10 µM | > 10 µM | > 10 µM | > 10 µM | > 10 µM | > 10 µM | CCNc1nnc2ccc(-c3ocnc3-c3ccc(F)cc3)cn12 | – |

The next lines start with the compound.

| Compound | IC50 [2] | IC50 [3] | IC50 [4] | IC50 [5] | IC50 [6] | IC50 [7] | further results |
| --- | --- | --- | --- | --- | --- | --- | --- |
| CC(C)c1nnc2ccc(-c3c[nH]nc3-c3cc(F)ccc3F)cn12 | > 10 µM | > 10 µM | > 10 µM | > 10 µM | > 10 µM | > 10 µM | Papp A→B [17]: 6 ×10⁻⁶ cm/s; Papp B→A [18]: 18 ×10⁻⁶ cm/s |
| CC(C)c1nnc2ccc(-c3ocnc3-c3ccccc3)cn12 | > 10 µM | > 10 µM | > 10 µM | > 10 µM | > 10 µM | > 10 µM | IC50 (Casein kinase II): > 10 µM |
